Experimental data taken from paper PMC6330446, “An integrated characterization of contractile, electrophysiological, and structural cardiotoxicity of Sophora tonkinensis Gapnep. in human pluripotent stem cell-derived cardiomyocytes” (Stem Cell Research & Therapy, 2019).
Entries after “also recorded” stand apart in the source; their conditions may differ. Read-outs that look alike come from different tables or passages of the source.

Assays:
[1] = system: hiPSC-CMs; test: Cardio-NLCS impedance and extracellular field potential (EFP) recording; assay type: cell-based, human; settings: for Amplitude (EFP): lowest concentration that demonstrated a significant change compare with the control group / Amplitude (IMP): lowest concentration that demonstrated a significant change compare with the control group / Base impedance: lowest concentration that demonstrated a significant change compare with the control group / Beat rate: lowest concentration that demonstrated a significant change compare with the control group / FPD: lowest concentration that demonstrated a significant change compare with the control group: 2, 10, 50 μM tested, recorded over 24 h; for Base impedance vs the control group (in words) / Contractile amplitude (amplitude of IMP) vs the control group (in words) / FPD value vs the control group (in words) / Potential amplitude (amplitude of EFP) vs the control group (in words) / Beat rate vs the control group (in words): 2, 10, 50 μM, 24 h recording
Description: (§1) After plating for about 3 days, CMs matured and began to beat. At this time, different compounds were added, and experiments were performed 24 h after treatment. The experiments were grouped as follows: control group (normal medium); matrine, oxymatrine, sophocarpine, and cytisine treatment (2, 10, 50 μM) groups; and aconitine treatment (1 μM) group. The doses of toxicity studies above were determined by the effective therapeutic doses reported and included or exceeded the therapeutic dose.
Cardio-NLCS (Optoprobe Science LTD, Canada) is a turn-key system for efficient impedance and extracellular field potential (EFP) measurements of cell monolayers or tissue preparations. NSP-96 dedicated for Cardio-NLCS should be coated with BD and the wells should not run dry before adding the cell suspension. After seeding, the medium was not exchanged for 12 h. Subsequently, the medium exchange was completed once a day for 2–3 days and every 2 days thereafter. Adding compounds required a complete solution exchange to allow for exact dosing. After the cells were allowed to re-equilibrate for 2–3 h, the 2× concentrated compounds were added by exchanging half of the medium per well. In this experiment, several indexes (base impedance, amplitude, beat rate, and FPD) were recorded at the start of the experiment (control), then every 5 min for 4 h after compound application and every 30 min the same as cell growth period detection, lasting a minimum of 24 h. In this way, both time and concentration-dependent effects could be monitored. Impedance and EFP data analyses were taken every 4 h after compound administrations.

[2] = system: GCaMP hESC-CMs; assay type: cell-based, human
Description: The hESC-CMs in this experiment can express the GCaMP reporter gene by gene editing, and green fluorescence marker can be observed by a fluorescence microscope. The fluorescence intensity is proportional to Ca^2+ concentration. The CMs were seeded into 96-well plates at 5000/well and were administered the same as above. The fluorescence intensities of hESC-CMs were monitored using an IncuCyte™ S3 ZOOM cell imaging system (Essen BioScience, Ann Arbor, MI). Data were presented as the mean ± SEM, n ≥ 3.

[3] = system: hiPSC-CMs; test: SOD, GSH and MDA assay; assay type: cell-based, human; settings: 2, 10, 50 μM
Description: as §1
Cell treatment was the same as discussed in the “Compound treatment” section. After reaching the predetermined time, the cells were washed with 4 °C physiological saline and later were added into the lysate and appropriately pipetted. After centrifuging at 1.2 × 10^4 rpm for 5 min, the supernatant was obtained to measure the levels of SOD, GSH and MDA using a commercially available kit (Beyotime Biotechnology, Shanghai, China) following the manufacturer's instructions. Data were presented as the mean ± SEM, n ≥ 3.

[4] = system: hiPSC-CMs
Description: as §1
Cell treatment method was the same as above. After reaching the predetermined time, 120 μl of the supernatant of each well was taken for measuring LDH leakage using a commercially available kit (Beyotime Biotechnology, Shanghai, China) following the manufacturer’s instructions. Data were presented as the mean ± SEM, n ≥ 3.

[5] = system: hiPSC-CMs; assay type: cell-based, human
Description: Cells were incubated in a maintaining medium containing 10 μM DCFH-DA (Beyotime Biotechnology, Shanghai, China) for 30 min at 37 °C in the dark. The measurement of ROS was performed with IncuCyte™ S3 ZOOM cell imaging system (Essen BioScience, Ann Arbor, MI). TissueQuest 6.0 was used for the quantitative analysis of ROS formation. Data were presented as the mean ± SEM, n ≥ 3.

[6] = system: hiPSC-CMs; settings: for Cell viability (in words): alkaloids 2, 10, 50 μM, aconitine 1 μM
Description: as §1
CMs were incubated in 10% CCK-8 (Dojindo, Kumamoto, Japan) that was diluted in normal culture medium at 37 °C until a visual color conversion occurred. The absorbance of each well was measured using a microplate reader (Spectrafluor, TECAN, Sunrise, Austria) at 450 nm. Three individual experiments were performed. All samples were operated in duplicate.
A 96-well plate was used to seed hiPSC-CMs at a concentration of 5 × 10^4 cells per well. The cultured cells were treated with different concentrations of compounds and were incubated for another 48 h. CMs were digested with trypsin, and a small amount of cell suspension was added into the same amount of trypan blue solution. Countstar Automated Cell Counter IC1000 (Elite Life Sciences, Shanghai, China) was used to count the number of total and living cells. Data were presented as the mean ± SEM, n ≥ 3.

[7] = at the lowest effective concentration
[8] = hiPSC-CMs, 2, 10, 50 μM tested, 24 h

Row | SMILES | Amplitude (EFP): lowest concentration that demonstrated a significant change compare with the control group [1] | Amplitude (IMP): lowest concentration that demonstrated a significant change compare with the control group [1] | Base impedance: lowest concentration that demonstrated a significant change compare with the control group [1] | Beat rate: lowest concentration that demonstrated a significant change compare with the control group [1] | FPD: lowest concentration that demonstrated a significant change compare with the control group [1] | Base impedance vs the control group (in words) [1] | Contractile amplitude (amplitude of IMP) vs the control group (in words) [1] | FPD value vs the control group (in words) [1] | Potential amplitude (amplitude of EFP) vs the control group (in words) [1] | Amplitude (EFP): initial time of significant change compare with the control group [1, 7] | Amplitude (IMP): initial time of significant change compare with the control group [1, 7] | Base impedance: initial time of significant change compare with the control group [1, 7] | GSH activity (in words) [3] | MDA level (in words) [3] | SOD activity (in words) [3] | Cell viability (in words) ([6]; hiPSC-CMs, 24 h) | Beat rate: initial time of significant change compare with the control group [1, 7] | [Ca^2+]i: lowest concentration that demonstrated a significant change compare with the control group ([2]; hESC-CMs, 2, 10, 50 μM tested) | LDH leakage: lowest concentration that demonstrated a significant change compare with the control group ([4]; hiPSC-CMs, 2, 10, 50 μM tested) | ROS level: lowest concentration that demonstrated a significant change compare with the control group ([5]; hiPSC-CMs, 2, 10, 50 μM tested) | other results
1 | O=c1cccc2n1C[C@@H]1CNC[C@H]2C1 [Cytisine, cytisine] | 50 µM | 10 µM | 50 µM | 10 µM | No effect | no change except 50 μM cytisine treatment | upward trend | no significant effect | upward trend | 16 h | 4 h | 12 h | sharply lowered | rose | sharply lowered | decreased dose-dependently | – | – | – | – | Beat rate vs the control group (in words) ([1]; listed as cytisine): slightly lowered; FPD value vs the control group (in words) ([1]; listed as cytisine): remained stable in all groups; [Ca^2+]i: lowest concentration that demonstrated a significant change compare with the control group ([2]; human): 50 µM; LDH leakage: lowest concentration that demonstrated a significant change compare with the control group ([4]; human): 2 µM; ROS level: lowest concentration that demonstrated a significant change compare with the control group ([5]; human): 50 µM; Cell viability: lowest concentration that demonstrated a significant change compare with the control group ([6]; human): 50 µM
2 | O=C1C=CC[C@@H]2[C@H]3CCCN4CCC[C@@H](CN12)[C@@H]34 [Sophocarpine, sophocarpine] | 50 µM | 50 µM | 50 µM | 50 µM | 50 µM | no change | upward dose-dependent trend | large differences in the first 12 h and remained stable after 15 h of treatment | no change | 16 h | – | 8 h | sharply lowered | rose | sharply lowered | decreased dose-dependently | 4 h | 50 µM | 2 µM | 10 µM | FPD after high-dose administration (in words) ([1]; 50 μM): immediately increased in a jump; FPD: period of time of significant change compare with the control group [1, 7]: 0 to 12 h; Cell viability: lowest concentration that demonstrated a significant change compare with the control group [6, 8]: 10 µM
3 | O=C1CCC[C@@H]2[C@H]3CCCN4CCC[C@@H](CN12)[C@@H]34 [Matrine, matrine] | 50 µM | 10 µM | 10 µM | 2 µM | 50 µM | slightly lowered | upward trend | rose in the first half of matrine treatment | upward trend | 20 h | 4 h | 16 h | sharply lowered | rose | sharply lowered | decreased dose-dependently | – | 50 µM | 2 µM | 50 µM | Beat rate vs the control group (in words) [1]: slightly lowered; Beat rate in comparison with the low-dose group (in words) ([1]; higher concentrations 10, 50 μM): an increase in beat rate can be detected; Beat rate (in words) ([1]; low, therapeutically relevant concentration 2 μM): a decrease in the beat rate can be detected; Fluorescence intensity of calcium, [Ca^2+]i (in words) ([2]; GCaMP hESC-CMs, high dose of alkaloids (50 μM), aconitine 1 μM): increased significantly; ROS fluorescence / ROS production (in words) ([5]; hiPSC-CMs, high dose of alkaloids (50 μM), aconitine 1 μM): induced ROS production in excess
4 | O=C1CCC[C@@H]2[C@H]3CCC[N+]4([O-])CCC[C@@H](CN12)[C@@H]34 (stereo partly shown) [Oxymatrine, oxymatrine] | 10 µM | – | – | 10 µM | No effect | no change, except 10 μM oxymatrine treatment | upward dose-dependent trend | remained stable in all groups | upward dose-dependent trend; also recorded: large fluctuation | 12 h | 4 h | – | sharply lowered | rose | sharply lowered | decreased dose-dependently | 4 h | – | 2 µM | – | Beat rate vs the control group (in words) [1]: slightly lower; also recorded: large fluctuation; Cell viability: lowest concentration that demonstrated a significant change compare with the control group [6, 8]: 10 µM
